Results as given in PubChem BioAssay (NCI).
Values joined by “and” are separate entries in the source; they are usually repeats but may differ in a detail not shown here. Equal values may be shown once.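 These data come from cells grown in 96-well plates and exposed to compound for 48 hours at five concentrations. GI50 is the concentration that inhibits growth by half. Definition used: TGI = concentration required for complete inhibition of growth.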

Key:
Assay in all cases: NCI-60 cell line screen, 48 h
IGROV1 ovarian = tested on: IGROV1 ovarian
RXF 393 renal = tested on: RXF 393 renal
HCC-2998 colon = tested on: HCC-2998 colon
SK-OV-3 ovarian = tested on: SK-OV-3 ovarian
DU-145 prostate = tested on: DU-145 prostate
RPMI-8226 leukemia = tested on: RPMI-8226 leukemia
BT-549 breast = tested on: BT-549 breast
SF-295 CNS = tested on: SF-295 CNS
KM12 colon = tested on: KM12 colon
OVCAR-4 ovarian = tested on: OVCAR-4 ovarian

Structure (SMILES)	TGI (IGROV1 ovarian) [µM]	TGI (RXF 393 renal) [µM]	TGI (HCC-2998 colon) [µM]	TGI (SK-OV-3 ovarian) [µM]	TGI (DU-145 prostate) [µM]	TGI (RPMI-8226 leukemia)	TGI (BT-549 breast) [µM]	TGI (SF-295 CNS) [µM]	TGI (KM12 colon) [µM]	GI50 (IGROV1 ovarian) [µM]	GI50 (OVCAR-4 ovarian) [µM]	TGI (OVCAR-4 ovarian) [µM]	GI50 (HCC-2998 colon) [µM]	GI50 (SK-OV-3 ovarian) [µM]	GI50 (DU-145 prostate) [µM]	GI50 (RPMI-8226 leukemia) [µM]	GI50 (SF-295 CNS) [µM]	GI50 (KM12 colon) [µM]	GI50 (RXF 393 renal) [µM]	GI50 (BT-549 breast) [µM]
CC(=O)CC(=O)N1CCSC1=S	> 10	> 10	> 10	> 10	> 10	> 10 µM	> 10	> 10	> 10											
COc1cc2nc(N3CCC[C@H](NC4=CC(=O)c5ccccc5C4=O)C3)nc(N)c2cc1OC	4.27		3.5	4.22	3.58	4.84 µM		4.06	3.22	2.07	1.61	3.19	1.97	2.22	1.96	1.98	1.96	1.77		
O=c1cc(N2CCOCC2)n2c(ccc3ccccc32)n1	> 100	> 100	> 100	> 100		> 100 µM	> 100	> 100	> 100											
C/C(=N\Nc1nc2ccccc2[nH]1)c1ncccn1	9.41	> 32.5	> 100	> 100	> 100		> 100	> 100	> 46.9			> 100								
COc1cccc2c1OC1c3ccccc3OCC1(O)C2 (stereo not drawn)	> 100		> 100	> 100	> 100	> 100 µM	> 100	> 100	> 100			> 100								
Oc1ccc(Cl)cc1-c1cc(-c2ccccc2)nc(=S)[nH]1	> 100	> 100	> 100	> 100	> 100	> 100 µM		> 100	> 100			> 100								
Cn1c2ccc(Cl)cc2c2ccc3c(c21)C(=O)C=CC3=O	> 10		> 10	> 10	> 10	> 10 µM	> 10	> 10	> 10			> 10								
S=C1C(=Nc2ccccc2)N(c2ccccc2)/C(=N\c2cccc[n+]2Cc2ccccc2)N1c1ccccc1	54.9	27.3	27.2	42.6	> 100	87.2 µM	27.4	27.4	32											
Cc1c(OCc2cccc3ccccc23)ccc2c(=O)cc(SCCN3CCOCC3)oc12	> 100	> 100	> 100		> 100		> 100	> 100	> 100			> 100								
COC(=O)/C=C\n1nc(Br)c(=O)[nH]c1=O	> 100	> 100	> 100		> 100	> 100 µM	> 100		> 100			> 100								
COc1cccc(C(C#N)NNC(=O)c2c(Cl)c(Cl)c(Cl)c(Cl)c2-c2nc3ccc(C(=O)c4ccccc4)cc3[nH]2)c1O (stereo not drawn)	> 100	9.03		> 100	> 100	> 100 µM	> 100	4.69	> 100			> 100								
Cc1nc2ccc(Br)cc2c(=O)n1-c1ccc(N)cc1	> 100	81.8	> 100	> 100	> 100		> 100	> 100	> 100			> 100								
Cc1ccc(N=C/C=C(\Nc2ccc(C)cc2)c2ccc3ccccc3c2)cc1	15.1	8.52		9.71	10.7	2.56 µM	13.6	3.9	4.43			11.2								
CC(=O)OCC1OC(SC2=NC(=O)CS2)C(OC(C)=O)C(OC(C)=O)C1OC(C)=O (stereo not drawn)	> 100	> 100	> 100	> 100	> 100	90 µM and > 100 µM	> 100	> 100	> 100											
COC(=O)c1c2c(cc3c1CC1(Cc4cc5c(c(C)c4C1)CCC5)C3)CCC2 (stereo not drawn)	> 100	> 100	> 100	> 100	> 100	> 100 µM		> 100				> 100								
C=C(Br)C[N+]12CN3CN(CN(C3)C1)C2	> 100	> 100	> 100	> 100	> 100	> 100 µM		> 100	> 100			> 100								
CC(C)[C@H](C)/C=C/[C@@H](C)C1CC[C@H]2[C@@]34C=C[C@]5(C[C@@H](O)CC[C@]5(C)[C@H]3CC[C@]12C)OO4 (stereo partly drawn)	> 100	> 100	50.9	> 100	56		92.7	> 100	> 100			> 100								
CC(CCc1nc2ccccc2s1)(c1ccc(O)cc1)c1ccc(O)cc1	28.3	33.2	33.8		31.6		39.7	28.9	33.8			37								
O=Nc1c(-c2c(O)[nH]c3ccc(I)cc23)[nH]c2ccccc12	8.51	3.81		> 35	> 24.6	4.67 µM	> 59.3	> 71.7				14.8								
O=C(O)Cn1c2c(c3c1-c1ccccc1C3=O)C(=O)CCC2	> 100	> 100	> 100	> 100	> 100		> 100	> 100	> 100	> 100	> 100	> 100	> 100	> 100	> 100		> 100	> 100	> 100	> 100
COc1ccc(/C=c2\[nH]c3nc(=O)c(N4CCCCC4)c(N)n3c2=O)cc1	> 100	> 100	> 100	> 100	> 100	> 100 µM		> 100	> 100			> 100								
COC(=O)[C@@H](NS(=O)(=O)CC12CCC(CC1)C2(C)C)C(C)(C)C	> 100	> 100	> 100	> 100	> 100		> 100	> 100	> 100			> 100								
